Assay results taken from patent US10472381B2, “Sialic acid derivatives” (Reinhard Brossmer, priority 2014, dated 2019).

These molecules were tested against T1, CD22 (Homo sapiens, UniProt P20273) (assay: ELISA-based inhibition assay: inhibition of binding of soluble CD22 to immobilized IgM). Conditions: Table I; relative to reference BPCNeu5Ac (rIP = 1).
T1 construct: The soluble CD22 protein was expressed in the CHO-Lec1 cell line; made in house; host or cells: CHO-Lec1
T1 sequence (P20273 20-687 limits assumed): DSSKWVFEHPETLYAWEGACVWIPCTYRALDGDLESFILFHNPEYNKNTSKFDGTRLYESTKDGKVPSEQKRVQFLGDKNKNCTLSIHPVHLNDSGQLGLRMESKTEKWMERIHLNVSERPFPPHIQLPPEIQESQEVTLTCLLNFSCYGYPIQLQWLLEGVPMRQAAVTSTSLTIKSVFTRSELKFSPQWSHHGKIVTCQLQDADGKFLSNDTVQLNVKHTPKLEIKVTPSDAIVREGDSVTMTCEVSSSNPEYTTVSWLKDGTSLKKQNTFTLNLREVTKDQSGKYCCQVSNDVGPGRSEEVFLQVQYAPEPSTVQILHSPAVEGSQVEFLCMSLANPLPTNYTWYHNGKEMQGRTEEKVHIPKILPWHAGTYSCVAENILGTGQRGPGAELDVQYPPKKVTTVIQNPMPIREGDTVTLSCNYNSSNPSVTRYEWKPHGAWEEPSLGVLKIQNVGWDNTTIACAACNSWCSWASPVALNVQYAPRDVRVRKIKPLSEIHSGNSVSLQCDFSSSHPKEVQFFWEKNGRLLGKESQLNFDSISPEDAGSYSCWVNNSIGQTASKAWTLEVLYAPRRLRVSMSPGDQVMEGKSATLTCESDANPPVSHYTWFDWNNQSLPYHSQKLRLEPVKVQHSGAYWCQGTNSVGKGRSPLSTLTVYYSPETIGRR
Method: The biological activity of the substances was determined in an ELISA-based inhibition assay as described in “Eur. J. Immunol. 2012, 42, 2792-2802”. The sialic acid derivatives of the formula (I) inhibit the binding of soluble CD22 to immobilized IgM in proportion to their affinity for CD22. The soluble CD22 protein was expressed in the CHO-Lec1 cell line and isolated as described by “Eur. J. Immunol. 2012, 42, 2792-2802”. […] The increase in affinity is reported as rIP (relative inhibitory affinity).
`CO[C@]1(C(=O)[O-])C[C@H](O)[C@@H](NC(C)=O)[C@H]([C@H](O)[C@H](O)CNC(=O)c2ccc(-c3ccccc3)cc2)O1.[Na+]` [BPC Neu5 Ac, reference compound] was tested, and the “rIP (relative inhibitory potency)” value was 1.
For `CC(=O)N[C@H]1[C@H]([C@H](O)[C@H](O)CNC(=O)c2ccc(-c3ccc(F)cc3)cc2)O[C@@](OCCCCCC(=O)[O-])(C(=O)[O-])C[C@@H]1NS(=O)(=O)[O-].[Na+].[Na+].[Na+]` [Compound 37], the “rIP (relative inhibitory potency)” value was 405.

Same assay, conditions: Table I; soluble CD22 binding to immobilized IgM
Molecule `CC(=O)N[C@H]1[C@H]([C@H](O)[C@H](O)CNC(=O)c2ccc(-c3ccccc3)cc2)O[C@@](OCCCSCCC(=O)O)(C(=O)O)C[C@@H]1NC(=O)OC(C)(C)C` [Compound 29] has an IC50 of 85 nM.
Work on `CCC(=O)N[C@@H]1[C@@H](NC(C)=O)[C@H]([C@H](O)[C@H](O)CNC(=O)c2ccc(-c3ccccc3)cc2)O[C@@](OCCCCCC(=O)O)(C(=O)O)[C@H]1O` [Compound 10] yielded an IC50 of 6 nM.
`CO[C@]1(C(=O)[O-])C[C@H](O)[C@@H](NC(C)=O)[C@H]([C@H](O)[C@H](O)CNC(=O)c2ccc(-c3ccccc3)cc2)O1.[Na+]` [BPC Neu5 Ac, reference compound] gave an IC50 of 6100 nM.
`CC(=O)N[C@H]1[C@H]([C@H](O)[C@H](O)CNC(=O)c2ccc(-c3ccc(F)cc3)cc2)O[C@@](OCCCCCC(=O)[O-])(C(=O)[O-])C[C@@H]1NS(=O)(=O)[O-].[Na+].[Na+].[Na+]` [Compound 37] showed an IC50 of 15 nM.

Same assay, conditions: Table II; relative to reference compound 10 co-tested in the same assay (rIP = 1)
`CC(=O)N[C@@H]1[C@@H](NC(=O)CO)[C@H](O)[C@](OCCCCCC(=O)[O-])(C(=O)[O-])O[C@H]1[C@H](O)[C@H](O)CNC(=O)c1ccc(-c2ccccc2)cc1.[Na+].[Na+]` [Compound 44] was tested, and the rIP was 0.24.
`CC(=O)N[C@@H]1[C@@H](NC(=O)C(C)C)[C@H](O)[C@](OCCCCCC(=O)[O-])(C(=O)[O-])O[C@H]1[C@H](O)[C@H](O)CNC(=O)c1ccc(-c2ccccc2)cc1.[Na+].[Na+]` [Compound 39] showed a rIP of 0.70.
`CC(=O)N[C@@H]1[C@@H](NC(=O)C2CC2)[C@H](O)[C@](OCCCCCC(=O)[O-])(C(=O)[O-])O[C@H]1[C@H](O)[C@H](O)CNC(=O)c1ccc(-c2ccccc2)cc1.[Na+].[Na+]` [Compound 45] showed a rIP of 0.81.
`CC(=O)N[C@@H]1[C@@H](NC(=O)CF)[C@H](O)[C@](OCCCCCC(=O)[O-])(C(=O)[O-])O[C@H]1[C@H](O)[C@H](O)CNC(=O)c1ccc(-c2ccccc2)cc1.[Na+].[Na+]` [Compound 43] gave a rIP of 0.25.
Molecule `CC(=O)N[C@@H]1[C@@H](NC(=O)CCl)[C@H](O)[C@](OCCCCCC(=O)[O-])(C(=O)[O-])O[C@H]1[C@H](O)[C@H](O)CNC(=O)c1ccc(-c2ccccc2)cc1.[Na+].[Na+]` [Compound 41] has a rIP of 0.37.
`CC(=O)N[C@@H]1[C@@H](NS(=O)(=O)c2cccc3c(N(C)C)cccc23)[C@H](O)[C@](OCCCCCC(=O)[O-])(C(=O)[O-])O[C@H]1[C@H](O)[C@H](O)CNC(=O)c1ccc(-c2ccccc2)cc1.[Na+].[Na+]` [Compound 65] showed a rIP of 0.17.
In the case of `CC(=O)N[C@@H]1[C@@H](NC(=O)c2cccc(C)c2)[C@H](O)[C@](OCCCCCC(=O)[O-])(C(=O)[O-])O[C@H]1[C@H](O)[C@H](O)CNC(=O)c1ccc(-c2ccccc2)cc1.[Na+].[Na+]` [Compound 50], the rIP is reported as 0.51.
Molecule `CC(=O)N[C@@H]1[C@@H](NC(=O)C(C)(C)C)[C@H](O)[C@](OCCCCCC(=O)[O-])(C(=O)[O-])O[C@H]1[C@H](O)[C@H](O)CNC(=O)c1ccc(-c2ccccc2)cc1.[Na+].[Na+]` [Compound 40] has a rIP of 0.38.
For `CC(=O)N[C@@H]1[C@@H](NC(=O)c2ccccc2)[C@H](O)[C@](OCCCCCC(=O)[O-])(C(=O)[O-])O[C@H]1[C@H](O)[C@H](O)CNC(=O)c1ccc(-c2ccccc2)cc1.[Na+].[Na+]` [Compound 48], the rIP was 0.93.
Molecule `COc1cccc(C(=O)N[C@@H]2[C@@H](NC(C)=O)[C@H]([C@H](O)[C@H](O)CNC(=O)c3ccc(-c4ccccc4)cc3)O[C@@](OCCCCCC(=O)[O-])(C(=O)[O-])[C@H]2O)c1.[Na+].[Na+]` [Compound 49] has a rIP of 0.34.
For `CCCCC(=O)N[C@@H]1[C@@H](NC(C)=O)[C@H]([C@H](O)[C@H](O)CNC(=O)c2ccc(-c3ccccc3)cc2)O[C@@](OCCCCCC(=O)[O-])(C(=O)[O-])[C@H]1O.[Na+].[Na+]` [Compound 42], the rIP was 1.22.
`CC(=O)N[C@@H]1[C@@H](NC(C)=O)[C@H](O)[C@](OCCCCCC(=O)[O-])(C(=O)[O-])O[C@H]1[C@H](O)[C@H](O)CNC(=O)c1ccc(-c2ccccc2)cc1.[Na+].[Na+]` [Compound 38] was tested, and the rIP was 0.45.
In the case of `CC(=O)N[C@@H]1[C@@H](NC(=O)CCCl)[C@H](O)[C@](OCCCCCC(=O)[O-])(C(=O)[O-])O[C@H]1[C@H](O)[C@H](O)CNC(=O)c1ccc(-c2ccccc2)cc1.[Na+].[Na+]` [Compound 46], the rIP is reported as 0.84.

Same assay, conditions: Table III; relative to reference compound 17 co-tested in the same assay (rIP = 1)
In the case of `CC(=O)N[C@H]1[C@H]([C@H](O)[C@H](O)CNC(=O)c2ccc(-c3ccccc3)cc2)O[C@@](OCCCCCC(=O)[O-])(C(=O)[O-])C[C@@H]1NC(=O)c1ccc(Cl)cc1.[Na+].[Na+]` [Compound 61], the rIP is reported as 3.4.
`COc1ccc(C(=O)N[C@H]2C[C@](OCCCCCC(=O)[O-])(C(=O)[O-])O[C@@H]([C@H](O)[C@H](O)CNC(=O)c3ccc(-c4ccccc4)cc3)[C@@H]2NC(C)=O)cc1.[Na+].[Na+]` [Compound 63] gave a rIP of 0.27.
`CC(=O)N[C@H]1[C@H]([C@H](O)[C@H](O)CNC(=O)c2ccc(-c3ccccc3)cc2)O[C@@](OCCCCCC(=O)[O-])(C(=O)[O-])C[C@@H]1NC(=O)c1ccc(C(F)(F)F)cc1.[Na+].[Na+]` [Compound 64] showed a rIP of 1.2.
For `CC(=O)N[C@H]1[C@H]([C@H](O)[C@H](O)CNC(=O)c2ccc(-c3ccccc3)cc2)O[C@@](OCCCCCC(=O)[O-])(C(=O)[O-])C[C@@H]1NC(=O)c1cnccn1.[Na+].[Na+]` [Compound 55], the rIP was 2.7.
`CC(=O)N[C@H]1[C@H]([C@H](O)[C@H](O)CNC(=O)c2ccc(-c3ccccc3)cc2)O[C@@](OCCCCCC(=O)[O-])(C(=O)[O-])C[C@@H]1NC(=O)c1cccs1.[Na+].[Na+]` [Compound 56] was tested, and the rIP was 3.6.
`CC(=O)N[C@H]1[C@H]([C@H](O)[C@H](O)CNC(=O)c2ccc(-c3ccccc3)cc2)O[C@@](OCCCCCC(=O)[O-])(C(=O)[O-])C[C@@H]1NC(=O)c1ccco1.[Na+].[Na+]` [Compound 57] gave a rIP of 6.1.
Work on `CC(=O)N[C@H]1[C@H]([C@H](O)[C@H](O)CNC(=O)c2ccc(-c3ccccc3)cc2)O[C@@](OCCCCCC(=O)[O-])(C(=O)[O-])C[C@@H]1NC(=O)CC1NC(=O)NC1=O.[Na+].[Na+]` (stereo partly drawn) [Compound 58] yielded a rIP of 3.4.
In the case of `CC(=O)N[C@H]1[C@H]([C@H](O)[C@H](O)CNC(=O)c2ccc(-c3ccccc3)cc2)O[C@@](OCCCCCC(=O)[O-])(C(=O)[O-])C[C@@H]1NC(=O)c1ccc(C)cc1.[Na+].[Na+]` [Compound 59], the rIP is reported as 0.24.
`CC(=O)N[C@H]1[C@H]([C@H](O)[C@H](O)CNC(=O)c2ccc(-c3ccccc3)cc2)O[C@@](OCCCCCC(=O)[O-])(C(=O)[O-])C[C@@H]1NC(=O)c1ccc(F)cc1.[Na+].[Na+]` [Compound 60] was tested, and the rIP was 2.1.
`CC(=O)N[C@H]1[C@H]([C@H](O)[C@H](O)CNC(=O)c2ccc(-c3ccccc3)cc2)O[C@@](OCCCCCC(=O)[O-])(C(=O)[O-])C[C@@H]1NC(=O)c1c(F)cccc1F.[Na+].[Na+]` [Compound 54] was tested, and the rIP was 0.75.

Same assay, conditions: Table IV; relative to reference compound 66 co-tested in the same assay (rIP = 1)
Molecule `CC(=O)N[C@H]1[C@H]([C@H](O)[C@H](O)CNC(=O)c2ccc(-c3ccccc3)nc2)O[C@@](OCCCCCC(=O)[O-])(C(=O)[O-])C[C@@H]1NC(=O)OCc1ccccc1.[Na+].[Na+]` [Compound 74] has a rIP of 0.20.
`CC(=O)N[C@H]1[C@H]([C@H](O)[C@H](O)CNC(=O)c2ccc(-c3ccccc3F)cc2)O[C@@](OCCCCCC(=O)[O-])(C(=O)[O-])C[C@@H]1NC(=O)OCc1ccccc1.[Na+].[Na+]` [Compound 68] was tested, and the rIP was 0.76.
`CC(=O)N[C@H]1[C@H]([C@H](O)[C@H](O)CNC(=O)c2ccc(-c3cccs3)cc2)O[C@@](OCCCCCC(=O)[O-])(C(=O)[O-])C[C@@H]1NC(=O)OCc1ccccc1.[Na+].[Na+]` [Compound 70] gave a rIP of 0.88.
`CC(=O)N[C@H]1[C@H]([C@H](O)[C@H](O)CNC(=O)c2ccc(-c3ccc(O)cc3)cc2)O[C@@](OCCCCCC(=O)[O-])(C(=O)[O-])C[C@@H]1NC(=O)OCc1ccccc1.[Na+].[Na+]` [Compound 67] was tested, and the rIP was 1.0.
In the case of `CC(=O)N[C@H]1[C@H]([C@H](O)[C@H](O)CNC(=O)c2ccc(-c3cccs3)s2)O[C@@](OCCCCCC(=O)[O-])(C(=O)[O-])C[C@@H]1NC(=O)OCc1ccccc1.[Na+].[Na+]` [Compound 71], the rIP is reported as 0.28.
In the case of `CC(=O)N[C@H]1[C@H]([C@H](O)[C@H](O)CNC(=O)c2ccc(Oc3ccccc3)cc2)O[C@@](OCCCCCC(=O)[O-])(C(=O)[O-])C[C@@H]1NC(=O)OCc1ccccc1.[Na+].[Na+]` [Compound 75], the rIP is reported as 0.25.
`CC(=O)N[C@H]1[C@H]([C@H](O)[C@H](O)CNC(=O)c2cnc(-c3ccccc3)nc2)O[C@@](OCCCCCC(=O)[O-])(C(=O)[O-])C[C@@H]1NC(=O)OCc1ccccc1.[Na+].[Na+]` [Compound 73] showed a rIP of 0.23.
